Measurements published in patent publication US9757456B2, “Super-saturating delivery vehicles for poorly water-soluble pharmaceutical and cosmetic active ingredients and suppression of crystallization of pharmaceutical active ingredients” (Nanologica AB, priority 2010, dated 2017).
≈ marks a conversion by molar mass, not a printed value.

Columns and labels:
[1] = Dissolution / kinetic release of atazanavir from nanoporous silica in simulated intestine fluid (SIF); type: physicochemical
Method: In order to compare the concentrations of atazanavir crystallite and atazanavir in nanoporous silica, the UV absorbance scans of atazanavir in SIF with the time are shown in FIG. 1. […] The atazanavir super-saturating solutions from the nanoporous silica. […] Particularly, the super-saturating state produced from NFM-1 could be maintain for 24 hours, and the other two could maintain for 7 hours.
For nanoporous material NFM-1 loaded with ATV, the dissolution rate appears to decrease with increased particle concentration as a percentage of loaded amount. […] In the case of the highest particle concentration, a supersaturation state is maintained for 4 hours after which the dissolution decreases rapidly due to crystallization of the drug in the water bath in which the dissolution study is conducted.

[2] = cited from earlier work
[3] = cited from earlier work; remark: listed apart in the source
[4] = Solubility and release of Retinol / Retinol 50C in water; type: physicochemical; conditions: 37° C., 150 rpm, after 20 days release from a nanoporous material
Method: As a mesoporous silica material, AMS-6 was selected in this example, having an Ia3d cubic pore structures, and a small pore diameter (around 4 nm average). Prior to the loading, AMS-6 was thermally treated in order to increase the hydrophobic of the inner/outer surface. 10 grams of calcined AMS-6 were placed in an oven and heated at 600° C. during 12 hours. The selected active ingredient was Retinol 50C. Retinol 50C is a formulation comprising pure Retinol and an excipient namely Polisorbate 20 used as stabilizer. […] The percentage of each component in the formulation is 50% in weight.

Compound: COC(=O)N[C@H](C(=O)N[C@@H](Cc1ccccc1)[C@@H](O)CN(Cc1ccc(-c2ccccn2)cc1)NC(=O)[C@@H](NC(=O)OC)C(C)(C)C)C(C)(C)C [Atazanavir]
- solubility in SIF (in words) ([1]; UV absorbance over time): very low
- solubility at 4 h ([1]; simulated intestine fluid (SIF), fassgf or other biorelevant, thermodynamic from solid, after 4 hours, higher concentration of NFM-1-ATV particles, read-out: maximum solubility): 0.254 µg/mL (≈ 0.36 µM)
- log P [2]: 5.20
- reduction in plasma concentration (Cmin) ([3]; co-administered with proton pump inhibitors): ≤ 78%
- bioavailability ([3]; in vivo): 60-68%
- half-life ([3]; in vivo): 6.5 h

Compound: CC1=C(/C=C/C(C)=C/C=C/C(C)=C/CO)C(C)(C)CCC1 [Retinol]
- concentration of Retinol dissolved in water [4]: 3400 ng/mL
